According to ChEMBL document CHEMBL1150788, “In vitro susceptibility of Sporothrix schenckii to six antifungal agents determined using three different methods” (2007):
≈ marks a conversion by molar mass, not a printed value.

Key:
Format in all cases: functional
[1] = test system: Sporothrix schenckii; experiment: Antifungal activity against Sporothrix schenckii PJRC002 isolate from cutaneous-lymphatic sporotrichosis patient after 72 hrs by modified NCCLS M38-A method
[2] = test system: Sporothrix schenckii; experiment: Antifungal activity against Sporothrix schenckii P14954 isolate from cutaneous-lymphatic sporotrichosis patient after 72 hrs by Sensititre YeastOne method
[3] = test system: Sporothrix schenckii; experiment: Antifungal activity against Sporothrix schenckii P0019 isolate from cutaneous-lymphatic sporotrichosis patient after 72 hrs by modified NCCLS M38-A method
[4] = test system: Sporothrix schenckii; experiment: Antifungal activity against Sporothrix schenckii P10012 isolate from cutaneous-lymphatic sporotrichosis patient after 72 hrs by ATB Fungus 2 method
[5] = test system: Sporothrix schenckii; experiment: Antifungal activity against Sporothrix schenckii P14954 isolate from cutaneous-lymphatic sporotrichosis patient after 72 hrs by ATB Fungus 2 method
[6] = test system: Sporothrix schenckii; experiment: Antifungal activity against Sporothrix schenckii P14036 isolate from cutaneous-lymphatic sporotrichosis patient after 72 hrs by ATB Fungus 2 method
[7] = test system: Sporothrix schenckii; experiment: Antifungal activity against Sporothrix schenckii P24255 isolate from cutaneous-lymphatic sporotrichosis patient after 72 hrs by ATB Fungus 2 method
[8] = test system: Sporothrix schenckii; experiment: Antifungal activity against Sporothrix schenckii SSA29 isolate from cutaneous-lymphatic sporotrichosis patient after 72 hrs by Sensititre YeastOne method
[9] = test system: Sporothrix schenckii; experiment: Antifungal activity against Sporothrix schenckii P20825 isolate from cutaneous-lymphatic sporotrichosis patient after 72 hrs by Sensititre YeastOne method
[10] = test system: Sporothrix schenckii; experiment: Antifungal activity against Sporothrix schenckii P3287 isolate from cutaneous-lymphatic sporotrichosis patient after 72 hrs by ATB Fungus 2 method
[11] = test system: Sporothrix schenckii; experiment: Antifungal activity against Sporothrix schenckii isolate from cutaneous-lymphatic sporotrichosis patient after 72 hrs by ATB Fungus 2 method
[12] = test system: Sporothrix schenckii; experiment: Antifungal activity against Sporothrix schenckii P25013 isolate from cutaneous-lymphatic sporotrichosis patient after 72 hrs by modified NCCLS M38-A method
[13] = test system: Sporothrix schenckii; experiment: Antifungal activity against Sporothrix schenckii P10012 isolate from cutaneous-lymphatic sporotrichosis patient after 72 hrs by Sensititre YeastOne method
[14] = test system: Aspergillus flavus; experiment: Antifungal activity against Aspergillus flavus ATCC 204304 […] after 72 hrs by ATB Fungus 2 method; conditions: ATCC 204304, 72 h
[15] = test system: Aspergillus flavus; experiment: Antifungal activity against Aspergillus flavus ATCC 204304 […] after 72 hrs by Sensititre YeastOne method; conditions: ATCC 204304, 72 h
[16] = test system: Aspergillus flavus; experiment: Antifungal activity against Aspergillus flavus ATCC 204304 […] after 72 hrs by modified NCCLS M38-A method; conditions: ATCC 204304, 72 h
[17] = test system: Sporothrix schenckii; experiment: Antifungal activity against Sporothrix schenckii P24255 isolate from cutaneous-lymphatic sporotrichosis patient after 72 hrs by Sensititre YeastOne method
[18] = test system: Sporothrix schenckii; experiment: Antifungal activity against Sporothrix schenckii P3287 isolate from cutaneous-lymphatic sporotrichosis patient after 72 hrs by Sensititre YeastOne method
[19] = test system: Pichia kudriavzevii; experiment: Antifungal activity against Candida krusei ATCC 6258 […] after 72 hrs by Sensititre YeastOne method; conditions: ATCC 6258, 72 h
[20] = test system: Sporothrix schenckii; experiment: Antifungal activity against Sporothrix schenckii P20825 isolate from cutaneous-lymphatic sporotrichosis patient after 72 hrs by modified NCCLS M38-A method
[21] = test system: Candida parapsilosis; experiment: Antifungal activity against Candida parapsilosis ATCC 22019 […] after 72 hrs by ATB Fungus 2 method; conditions: Lodderomyces parapsilosis, ATCC 22019, 72 h
[22] = test system: Sporothrix schenckii; experiment: Antifungal activity against Sporothrix schenckii P14036 isolate from cutaneous-lymphatic sporotrichosis patient after 72 hrs by Sensititre YeastOne method
[23] = test system: Pichia kudriavzevii; experiment: Antifungal activity against Candida krusei ATCC 6258 […] after 72 hrs by modified NCCLS M38-A method; conditions: ATCC 6258, 72 h
[24] = test system: Candida parapsilosis; experiment: Antifungal activity against Candida parapsilosis ATCC 22019 […] after 72 hrs by Sensititre YeastOne method; conditions: Lodderomyces parapsilosis, ATCC 22019, 72 h

SMILES	MIC [1]	MIC [2]	MIC [3]	MIC [4]	MIC [5]	MIC [6]	MIC [7]	MIC [8]	MIC [9]	MIC [10]	MIC50 [11]	MIC90 [11]	MIC [12]	MIC [13]	MIC [17]	MIC [18]	MIC [19]	MIC [20]	MIC [21]	MIC [22]	other results
C[C@@H]1[C@H](O)[C@@H](C)/C=C/C=C/C=C/C=C/C=C/C=C/C=C/[C@H](O[C@@H]2O[C@H](C)[C@@H](O)[C@H](N)[C@@H]2O)C[C@@H]2O[C@](O)(C[C@@H](O)C[C@@H](O)[C@H](O)CC[C@@H](O)C[C@@H](O)CC(=O)O[C@H]1C)C[C@H](O)[C@H]2C(=O)O [AMPHOTERICIN B]	4 µg/mL (≈ 4.33 µM)	1 µg/mL (≈ 1.08 µM)	0.125 µg/mL (≈ 0.135 µM)	≤ 0.5 µg/mL	≤ 0.5 µg/mL	1 µg/mL (≈ 1.08 µM)	2 µg/mL (≈ 2.16 µM)	0.06 µg/mL (≈ 0.0649 µM)	1 µg/mL (≈ 1.08 µM)	8 µg/mL (≈ 8.66 µM)	1 µg/mL (≈ 1.08 µM)	4 µg/mL (≈ 4.33 µM)	> 16 µg/mL	0.25 µg/mL (≈ 0.271 µM)	0.5 µg/mL (≈ 0.541 µM)	0.5 µg/mL (≈ 0.541 µM)	0.5 µg/mL (≈ 0.541 µM)	> 16 µg/mL	≤ 0.5 µg/mL	0.5 µg/mL (≈ 0.541 µM)	MIC [14]: > 16 µg/mL; MIC [15]: 0.5 µg/mL (≈ 0.541 µM); MIC [16]: 4 µg/mL (≈ 4.33 µM)
OC(Cn1cncn1)(Cn1cncn1)c1ccc(F)cc1F [FLUCONAZOLE]	> 64 µg/mL	> 256 µg/mL	> 64 µg/mL	> 128 µg/mL	> 128 µg/mL	> 128 µg/mL	128 µg/mL (≈ 418 µM)	> 256 µg/mL	256 µg/mL (≈ 836 µM)	> 128 µg/mL	> 128 µg/mL	> 128 µg/mL	> 64 µg/mL	> 256 µg/mL	> 256 µg/mL	> 256 µg/mL	64 µg/mL (≈ 209 µM)	> 64 µg/mL	4 µg/mL (≈ 13.1 µM)	> 256 µg/mL	MIC [23]: 128 µg/mL (≈ 418 µM)
CCC(C)n1ncn(-c2ccc(N3CCN(c4ccc(OCC5COC(Cn6cncn6)(c6ccc(Cl)cc6Cl)O5)cc4)CC3)cc2)c1=O (centres undefined) [ITRACONAZOLE]	0.25 µg/mL (≈ 0.354 µM)	0.25 µg/mL (≈ 0.354 µM)	0.25 µg/mL (≈ 0.354 µM)	2 µg/mL (≈ 2.83 µM)	4 µg/mL (≈ 5.67 µM)	1 µg/mL (≈ 1.42 µM)	1 µg/mL (≈ 1.42 µM)	0.25 µg/mL (≈ 0.354 µM)	0.13 µg/mL (≈ 0.184 µM)	2 µg/mL (≈ 2.83 µM)	1 µg/mL (≈ 1.42 µM)	2 µg/mL (≈ 2.83 µM)	0.5 µg/mL (≈ 0.709 µM)	0.25 µg/mL (≈ 0.354 µM)	0.25 µg/mL (≈ 0.354 µM)	0.25 µg/mL (≈ 0.354 µM)	1 µg/mL (≈ 1.42 µM)	0.5 µg/mL (≈ 0.709 µM)	≤ 0.125 µg/mL	0.25 µg/mL (≈ 0.354 µM)	MIC [23]: 1 µg/mL (≈ 1.42 µM); MIC [24]: 0.25 µg/mL (≈ 0.354 µM); MIC [14]: 0.25 µg/mL (≈ 0.354 µM); MIC [15]: 0.25 µg/mL (≈ 0.354 µM); MIC [16]: 0.5 µg/mL (≈ 0.709 µM)
